The test addresses T1, hTLR7 (Homo sapiens, UniProt Q9NYK1).
T1 construct: host or cells: HEK293
T1 sequence (Q9NYK1 27-1049): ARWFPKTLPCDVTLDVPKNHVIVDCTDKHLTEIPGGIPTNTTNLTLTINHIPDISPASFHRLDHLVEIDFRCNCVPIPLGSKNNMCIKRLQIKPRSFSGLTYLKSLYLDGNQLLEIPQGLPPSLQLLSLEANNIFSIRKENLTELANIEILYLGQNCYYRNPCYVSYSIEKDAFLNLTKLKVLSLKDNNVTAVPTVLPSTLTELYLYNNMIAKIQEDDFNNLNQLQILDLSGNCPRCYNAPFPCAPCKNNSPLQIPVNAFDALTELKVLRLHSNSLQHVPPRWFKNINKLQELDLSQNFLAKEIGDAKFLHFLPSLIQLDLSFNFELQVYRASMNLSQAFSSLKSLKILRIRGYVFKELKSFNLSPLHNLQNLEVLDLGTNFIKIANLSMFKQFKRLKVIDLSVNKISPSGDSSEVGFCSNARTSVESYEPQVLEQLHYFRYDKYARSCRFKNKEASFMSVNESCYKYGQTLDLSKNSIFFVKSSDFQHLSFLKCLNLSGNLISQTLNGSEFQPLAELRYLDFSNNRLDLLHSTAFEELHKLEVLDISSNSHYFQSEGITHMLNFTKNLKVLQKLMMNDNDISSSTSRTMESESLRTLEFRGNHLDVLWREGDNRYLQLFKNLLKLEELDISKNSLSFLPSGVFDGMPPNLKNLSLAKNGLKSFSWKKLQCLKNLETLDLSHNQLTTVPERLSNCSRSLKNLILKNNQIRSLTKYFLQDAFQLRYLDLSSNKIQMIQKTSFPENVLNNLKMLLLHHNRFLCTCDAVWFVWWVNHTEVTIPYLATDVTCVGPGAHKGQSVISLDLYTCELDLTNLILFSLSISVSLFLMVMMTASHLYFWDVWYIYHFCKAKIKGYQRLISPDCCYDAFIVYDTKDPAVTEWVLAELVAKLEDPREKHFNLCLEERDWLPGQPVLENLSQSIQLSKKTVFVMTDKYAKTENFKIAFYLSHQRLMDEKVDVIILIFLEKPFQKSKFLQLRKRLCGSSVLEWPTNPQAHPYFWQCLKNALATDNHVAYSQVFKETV
The test is described as follows: TLR7 agonist activity, HEK293 hTLR7 SEAP reporter assay. It is filed as cell-based. The settings on record: for EC50: HEK293 cotransfected with hTLR7 and inducible SEAP reporter gene, 24 h treatment, average ± SD of three independent replicates, n.a. = not active; for plateau / maximum response (efficacy) / loss of activity/potency on TLR7 relative to parent compound 21a: HEK293-hTLR7 SEAP; for plateau / maximum response (efficacy): less than twofold increase in maximum response; for loss of activity/potency on TLR7 relative to parent compound 21a: EC50 compared with 21a. The method, then:
TLR7 agonist activities were determined using the HEK293 cell line, which was cotransfected with the hTLR7 gene and an inducible SEAP reporter gene (InvivoGen, San Diego, California, USA) as described previously.[34] Briefly, cells were seeded in 96-well plates (3 × 10^4 cells/well) and incubated at 5% CO2 and 37 °C. After 24 h, the cells were treated with the solutions of the compounds in DMSO. Imiquimod was used as a PC. The cells were incubated again for 24 h under the same conditions. The activity of SEAP in the supernatant of the cells was measured using the QUANTI-Blue reagent (InvivoGen, San Diego, California, USA), according to the manufacturer's protocol. EC50 values were determined using GraphPad Prism 9.2.0. software (San Diego, California, USA) using the nonlinear regression curve fit and four-parameter logistic equation. All experiments were performed in three independent biological replicates. Values are given as averages from the independent measurements with standard deviations calculated.
In general terms: A reporter such as luciferase makes a cellular process visible.

Read-outs that look alike come from different tables or passages of the source. A value given as a limit tells only on which side of the number the result lay.

The source of these data is paper PMC10795023, “Structural Optimization and Biological Evaluation of Isoxazolo[5,4-d]pyrimidines as Selective Toll-Like Receptor 7 Agonists” (ACS Omega, 2024).

As usually defined, the EC50 is the concentration that produces a half-maximal response. In the case of `CC1CCCN(c2nc(C(F)(F)F)nc3onc(-c4ccc(C(F)(F)F)cc4)c23)C1` (stereo not shown) [Compound 16a, 4-(3-Methylpiperidin-1-yl)-6-(trifluoromethyl)-3-(4-(trifluoromethyl)phenyl)isoxazolo[5,4-d]pyrimidine], where the note is “read-out: EC50”, the EC50 was greater than 150 µM. Turning to `CC1CCCC(c2nc(C(F)(F)F)nc3onc(-c4ccc(F)cc4)c23)C1` (stereo not shown) [Compound 21y, 3-(4-Fluorophenyl)-4-(3-methylcyclohexyl)-6-(trifluoromethyl)isoxazolo[5,4-d]pyrimidine], the “plateau / maximum response (efficacy)” value is “low plateau response” and the EC50 entry is “retained its activity”. Moreover, under “read-out: EC50”, the EC50 was 15.9 ± 0.9 µM. In the case of `Fc1ccc(-c2noc3nc(C(F)(F)F)nc(N4CCCC5(CC5)C4)c23)cc1` [Compound 21p, 3-(4-Fluorophenyl)-4-(5-azaspiro[2.5]octan-5-yl)-6-(trifluoromethyl)isoxazolo[5,4-d]pyrimidine], the EC50 entry is given as “slightly less potent”. Besides, the EC50 (read-out: EC50) is 17.5 ± 3 µM. For the molecule `Fc1ccc(-c2noc3nc(C(F)(F)F)nc(N4CCCC4)c23)cc1` [Compound 21v, 3-(4-Fluorophenyl)-4-(pyrrolidin-1-yl)-6-(trifluoromethyl)isoxazolo[5,4-d]pyrimidine], the EC50 (read-out: EC50) was greater than 150 µM. As to `CC1CN(c2nc(C(F)(F)F)nc3onc(-c4ccc(F)cc4)c23)CCO1` (stereo not shown) [Compound 21g, 3-(4-Fluorophenyl)-4-(2-methylmorpholino)-6-(trifluoromethyl)isoxazolo[5,4-d]pyrimidine], the “plateau / maximum response (efficacy)” value is on record as “low plateau response” and the EC50 entry is “retained the potency”. Moreover, the EC50 (read-out: EC50) came out at 11 ± 0.1 µM.

Consider `CC1CCN(c2nc(C(F)(F)F)nc3onc(-c4ccc(F)cc4)c23)CC1` [Compound 21f, 3-(4-Fluorophenyl)-4-(4-methylpiperidin-1-yl)-6-(trifluoromethyl)isoxazolo[5,4-d]pyrimidine], for which the “loss of activity/potency on TLR7 relative to parent compound 21a” value is “Approximately 10 fold” and the “plateau / maximum response (efficacy)” value is recorded as “low plateau response”. Further, the EC50 (read-out: EC50) was determined as 68 ± 8.1 µM. Turning to `CC(C)CNc1nc(C(F)(F)F)nc2onc(-c3ccccc3)c12` [Compound 14b, N-Isobutyl-3-phenyl-6-(trifluoromethyl)isoxazolo[5,4-d]pyrimidin-4-amine], the EC50 result was “inactive”. With `CC1CCCN(c2nc(C(F)(F)F)nc3onc(Cc4ccc(F)c(F)c4)c23)C1` (stereo not shown) [Compound 23a, 3-(3,4-Difluorobenzyl)-4-(3-methylpiperidin-1-yl)-6-(trifluoromethyl)isoxazolo[5,4-d]pyrimidine], under “read-out: EC50”, the EC50 amounted to 19.9 ± 3.1 µM. `CC1CCCN(c2nc(C(F)(F)F)nc3onc(-c4ccc(F)c(Br)c4)c23)C1` (stereo not shown) [Compound 22, 3-(3-Bromo-4-fluorophenyl)-4-(3-methylpiperidin-1-yl)-6-(trifluoromethyl)isoxazolo[5,4-d]pyrimidine]: the EC50 (read-out: EC50) was 16.4 ± 0.1 µM.

As to `Fc1ccc(-c2noc3nc(C(F)(F)F)nc(NC4CC4)c23)cc1` [Compound 21c, N-Cyclopropyl-3-(4-fluorophenyl)-6-(trifluoromethyl)isoxazolo[5,4-d]pyrimidin-4-amine], the EC50 result is “inactive”. On to `CC1CCCN(c2nc(C(F)(F)F)nc3onc(-c4cccc([N+](=O)[O-])c4)c23)C1` (stereo not shown) [Compound 19a, 4-(3-Methylpiperidin-1-yl)-3-(3-nitrophenyl)-6-(trifluoromethyl)isoxazolo[5,4-d]pyrimidine], for which the EC50 entry is listed as “did not offer any change in activity”.

Turning to `CC(C)CNc1nc(C(F)(F)F)nc2onc(-c3ccc(Cl)cc3)c12` [Compound 15b, 3-(4-Chlorophenyl)-N-isobutyl-6-(trifluoromethyl)isoxazolo[5,4-d]pyrimidin-4-amine], the EC50 result is listed as “agonist activity was lost”. In the case of `CC(C)C1CCCN(c2nc(C(F)(F)F)nc3onc(-c4ccc(F)cc4)c23)C1` (stereo not shown) [Compound 21q, 3-(4-Fluorophenyl)-4-(3-isopropylpiperidin-1-yl)-6-(trifluoromethyl)isoxazolo[5,4-d]pyrimidine], the “loss of activity/potency on TLR7 relative to parent compound 21a” value is “Approximately 10 fold”. In addition, the EC50 (read-out: EC50) stood at 81.1 ± 7 µM. Regarding `CC1CCCCN1c1nc(C(F)(F)F)nc2onc(-c3ccc(F)cc3)c12` (stereo not shown) [Compound 21e, 3-(4-Fluorophenyl)-4-(2-methylpiperidin-1-yl)-6-(trifluoromethyl)isoxazolo[5,4-d]pyrimidine], the “loss of activity/potency on TLR7 relative to parent compound 21a” value is on record as “Approximately 10 fold” and the “plateau / maximum response (efficacy)” value is “low plateau response”. For the same molecule, the EC50 (read-out: EC50) stood at 63.3 ± 9.8 µM. In the case of `COC1CCN(c2nc(C(F)(F)F)nc3onc(-c4ccc(F)cc4)c23)C1` (stereo not shown) [Compound 21t, 3-(4-Fluorophenyl)-4-(3-methoxypyrrolidin-1-yl)-6-(trifluoromethyl)isoxazolo[5,4-d]pyrimidine], where the note is “read-out: EC50”, the EC50 is greater than 150 µM. As for `CC(C)CNc1nc(C(F)(F)F)nc2onc(-c3cccc([N+](=O)[O-])c3)c12` [Compound 19b, N-Isobutyl-3-(3-nitrophenyl)-6-(trifluoromethyl)isoxazolo[5,4-d]pyrimidin-4-amine], the EC50 entry is “did not offer any change in activity”. In the case of `CC1(C)CCCN(c2nc(C(F)(F)F)nc3onc(-c4ccc(F)cc4)c23)C1` [Compound 21o, 4-(3,3-Dimethylpiperidin-1-yl)-3-(4-fluorophenyl)-6-(trifluoromethyl)isoxazolo[5,4-d]pyrimidine], the EC50 result was “slightly less potent”. Moreover, the EC50 (read-out: EC50) turned out to be 24.5 ± 1.6 µM.

Consider `CC1CN(c2nc(C(F)(F)F)nc3onc(-c4ccc(F)cc4)c23)CCN1` (stereo not shown) [Compound 21h, 3-(4-Fluorophenyl)-4-(3-methylpiperazin-1-yl)-6-(trifluoromethyl)isoxazolo[5,4-d]pyrimidine], for which the EC50 entry was “lacked activity”.

With `CC1CCCN(c2nc(C(F)(F)F)nc3onc(-c4ccccc4)c23)C1` (stereo not shown) [Compound 14a, 4-(3-Methylpiperidin-1-yl)-3-phenyl-6-(trifluoromethyl)isoxazolo[5,4-d]pyrimidine], the EC50 result is “inactive”. `CN1CCN(c2nc(C(F)(F)F)nc3onc(-c4ccc(F)cc4)c23)CC1` [Compound 21j, 3-(4-Fluorophenyl)-4-(4-methylpiperazin-1-yl)-6-(trifluoromethyl)isoxazolo[5,4-d]pyrimidine]: the EC50 entry is listed as “lacked activity”. Besides, the EC50 (read-out: EC50) was greater than 150 µM. For `CC1CCCN(c2nc(C(F)(F)F)nc3onc(-c4ccc(Cl)cc4)c23)C1` (stereo not shown) [Compound 15a, 3-(4-Chlorophenyl)-4-(3-methylpiperidin-1-yl)-6-(trifluoromethyl)isoxazolo[5,4-d]pyrimidine], the EC50 (read-out: EC50) was determined as 21.4 ± 2.8 µM. `CC(C)CNc1nc(C(F)(F)F)nc2onc(-c3ccc(F)cc3)c12` [Compound 21b, 3-(4-Fluorophenyl)-N-isobutyl-6-(trifluoromethyl)isoxazolo[5,4-d]pyrimidin-4-amine]: the EC50 entry was “no activity observed”.
